These results are taken from ChEMBL document CHEMBL3507680, “University of Dundee, Gates Library screen for HepG2 cell viability”.

This data set in a line: Human HepG2 cell viability assay in 384 well format. The class given is toxicity, cell-based. Conditions: HepG2 cells, read-out: Inhibition. The arrangement: dose 125 nL, time 70.5 hour; concentration not given beside the values.
`CCN(Cc1ccc(C(C)=O)cc1)CC1CCOCC1`: the cytotoxicity at 70.5 h was 20.6%.

Turning to `Cc1nc(N2CCCC2)nc(N2CCC(O)(C(=O)O)CC2)c1C`, the cytotoxicity at 70.5 h came to 23.8%.

`CC(C)=CCN1CCC2(CC1)CC(=O)N(Cc1cc(F)cc(F)c1)C2`: the cytotoxicity at 70.5 h turned out to be 2.51%.

With `Cc1cc(N2CCCC(O)(CN(C)C)C2)c2cc3c(cc2n1)OCO3` (stereo not drawn), the cytotoxicity at 70.5 h was determined as 0.76%.

For `CC(=O)N[C@@H]1CN(Cc2ccccc2C(=O)O)C[C@H]1C(C)C`, the cytotoxicity at 70.5 h came out at 0.633%.

As to `Cc1nc(O)cc(C2CCN(C(=O)c3ccsc3)CC2)n1`, the cytotoxicity at 70.5 h is -5.48%.

For `CCc1ncc(CNCc2cccnc2N(C)C)cn1`, the cytotoxicity at 70.5 h is -12.1%.

`CC[C@@H](c1ccccc1)n1c(C2CC2)n[nH]c1=O`: the cytotoxicity at 70.5 h is -13%.

As to `CCN(CC1CCOCC1)C(=O)CCNC(=O)c1ccccc1F`, the cytotoxicity at 70.5 h is -23.5%.

As for `CN1CCCN(C(=O)c2cnc(C(C)(C)C)nc2O)CC1`, the cytotoxicity at 70.5 h was 0.369%.

On to `CC(C1CCN(Cc2c(Cl)cncc2Cl)CC1)N1CCOCC1` (stereo not drawn), for which the cytotoxicity at 70.5 h was -5.73%.

For `CCCc1cc(NCc2noc(COC)n2)n2nccc2n1`, the cytotoxicity at 70.5 h was -4.21%.

In the case of `Cc1cc(N2CCC3(CCCN(CCO)C3=O)C2)nc2cc(Cl)ccc12` (stereo not drawn), the cytotoxicity at 70.5 h is -19.8%.

For `O=C(c1coc(COc2ccccc2F)n1)N1CCCO1`, the cytotoxicity at 70.5 h was -6.81%.

Consider `Cc1ocnc1C(=O)N1CC[C@@]2(O)CCN(C(=O)N3CCCC3)C[C@H]2C1`, for which the cytotoxicity at 70.5 h was -4.39%.

For `CC(C)[C@@H]1CN(S(=O)(=O)c2cccc(C(=O)O)c2)C[C@H]1N(C)C`, the cytotoxicity at 70.5 h was 17.4%.

`CN1CC2(CCN(C(=O)c3ccc4nccnc4c3)CC2)CC1=O`: the cytotoxicity at 70.5 h is -4.39%.

As to `Fc1ccc(OC2CCN(CCn3cncn3)CC2)cc1`, the cytotoxicity at 70.5 h is -9.54%.

For `CN(C)c1nc2c(c(=O)[nH]1)CCN(C(=O)c1c[nH]c(=O)c(Cl)c1)C2`, the cytotoxicity at 70.5 h is -0.451%.

As to `CCn1c(C)nnc1SCCNC(=O)CC1CCc2ccccc21` (stereo not drawn), the cytotoxicity at 70.5 h was -18.5%.

In the case of `c1ccc2c(CC3CN(Cc4nccs4)CCO3)cccc2c1` (stereo not drawn), the cytotoxicity at 70.5 h is -0.398%.

Consider `O=C1CC(c2ccc3ccccc3n2)c2c(n[nH]c2C2CCC2)N1` (stereo not drawn), for which the cytotoxicity at 70.5 h worked out at 19.5%.

On to `CCCc1cc(N2CCC(NC3CCS(=O)(=O)C3)CC2)nc(C)n1` (stereo not drawn), for which the cytotoxicity at 70.5 h was -4.65%.

As to `c1cncc(CN(CCCn2ccnc2)CC2CCOC2)c1` (stereo not drawn), the cytotoxicity at 70.5 h was -1.27%.

For `CC(C)n1cnnc1CN(C)C(=O)c1cc(COc2ccccc2)[nH]n1`, the cytotoxicity at 70.5 h worked out at 2.63%.

As to `CCn1nc(C)c(NC(=O)CN2CCN(C(C)=O)CC2)c1C`, the cytotoxicity at 70.5 h was -10.9%.

Consider `COCc1ncn(Cc2nc(-c3ccco3)oc2C)n1`, for which the cytotoxicity at 70.5 h was 6.06%.

Consider `CCCN1CC2(CCN(C)CC2)CC1C(=O)NCCn1ccc(C)n1` (stereo not drawn), for which the cytotoxicity at 70.5 h is -1.37%.

On to `Nc1nc(Cn2ccnc2-c2cc(CN3CCCC3)cs2)cs1`, for which the cytotoxicity at 70.5 h turned out to be 3.17%.

Regarding `CCN(CC)S(=O)(=O)c1ccc(NC(=O)C(C)(C)C)cc1`, the cytotoxicity at 70.5 h was -4.91%.

With `CCc1ccc2nc(NCCOCCO)cc(C)c2c1`, the cytotoxicity at 70.5 h was -2.24%.

For `CCN(CC)C(CNCc1ccc(OC)c(F)c1)c1ccco1` (stereo not drawn), the cytotoxicity at 70.5 h amounted to 54.9%.

With `CCN(Cc1cnc(NCc2ccccc2)nc1)C1CCS(=O)(=O)C1` (stereo not drawn), the cytotoxicity at 70.5 h was -7.52%.

As to `COc1ccc([C@@H]2CN(C(=O)CCc3cc(Cl)no3)C[C@H]2N(C)C)cc1`, the cytotoxicity at 70.5 h is 4%.

Consider `CCC(C)Sc1ncc(-c2c(C#N)c(N)nc3c2COCC3)cn1` (stereo not drawn), for which the cytotoxicity at 70.5 h worked out at 6.03%.

As for `COCc1noc(CN2CCC3(CC2)[C@H](O)C[C@@H]3OC)n1`, the cytotoxicity at 70.5 h is -5.38%.

`CN(Cc1cc(-c2ccncc2)no1)Cc1nccn1C`: the cytotoxicity at 70.5 h was found to be 10.3%.

As to `CN1CCN(C2CCOCC2)CC12CCC(=O)N(CC1CC1)CC2` (stereo not drawn), the cytotoxicity at 70.5 h is -6.33%.

As for `O=C(c1ccon1)N1CCCCC1c1nc2cc(F)ccc2[nH]1` (stereo not drawn), the cytotoxicity at 70.5 h is -5.01%.

For the compound `Cc1nn(CCO)cc1CN1CCC(C(C)N2CCCC2)CC1` (stereo not drawn), the cytotoxicity at 70.5 h is -3.99%.

Consider `CN1CC2(CCN(C(=O)c3ccc4c(=O)n(C)cnc4c3)C2)OC1=O` (stereo not drawn), for which the cytotoxicity at 70.5 h came out at 8.11%.

As for `Cc1ccc(OC2CCN(CCn3cncn3)CC2)cc1`, the cytotoxicity at 70.5 h was -10.7%.

Consider `O=C1CN(CC[C@@H](O)c2ccccc2)CCN1c1ccccc1Cl`, for which the cytotoxicity at 70.5 h is -7.1%.

On to `COCCN(Cc1cnn(C)c1)C(=O)C1CCC(=O)N(C2CCCC2)C1` (stereo not drawn), for which the cytotoxicity at 70.5 h was -15%.

Turning to `Cc1nn(C)c(C)c1C(C(=O)O)N1CC=C(c2ccccc2)CC1` (stereo not drawn), the cytotoxicity at 70.5 h turned out to be 10.9%.

For `COCCN1CCN(c2ncnc3nc(C)cc(C)c23)CC1`, the cytotoxicity at 70.5 h is -7.61%.

As for `CSc1ccc(CN(C(=O)c2cc(C)[nH]c(=O)c2)C2CC2)cc1`, the cytotoxicity at 70.5 h came out at 0.291%.

Turning to `CCSCCNc1nc(-c2ccccn2)nc2c1c(C)nn2C`, the cytotoxicity at 70.5 h worked out at 2.98%.

Turning to `CCOC(=O)CC(NC(=O)c1cn(Cc2ccccc2F)nn1)C(C)C` (stereo not drawn), the cytotoxicity at 70.5 h was -9.35%.

Turning to `CC(=O)c1cn(CC(=O)N2CCCC(O)(CO)C2)c2ccccc12` (stereo not drawn), the cytotoxicity at 70.5 h was 28%.

With `COCCN(C/C=C/c1ccccc1)Cc1nccs1`, the cytotoxicity at 70.5 h amounted to 2.82%.

As for `Cc1ccc(C(=O)N2CCC3(CCC(=O)N(CC(N)=O)C3)CC2)cc1`, the cytotoxicity at 70.5 h was -8.05%.

On to `Cc1cnc2c(C(=O)N(C)Cc3cc(C4CC4)[nH]n3)cnn2c1`, for which the cytotoxicity at 70.5 h came to 31.8%.

For the compound `COc1ccc(-c2ccc(C(=O)N3CCOCC3CC(=O)O)o2)cc1` (stereo not drawn), the cytotoxicity at 70.5 h was -3.78%.

As to `CCCN1CCN(Cc2cc(Cl)cc(Cl)c2)[C@H]2CS(=O)(=O)C[C@H]21`, the cytotoxicity at 70.5 h was determined as 10.3%.

With `OC1(CN2CCCCC2)CCN(c2nccc(C(F)(F)F)n2)C1` (stereo not drawn), the cytotoxicity at 70.5 h was 18.4%.

For `CS(=O)(=O)N1C[C@@H]2CC[C@H](C1)N(C(=O)CCn1cnc3ccccc31)C2`, the cytotoxicity at 70.5 h came to 18.3%.

Turning to `Cc1cccc2[nH]c(C3CCN(C(=O)c4cccnn4)CC3)nc12`, the cytotoxicity at 70.5 h turned out to be 16.6%.

As to `Cc1ccc(CN2CCN(C3CCSCC3)CC2CCO)o1` (stereo not drawn), the cytotoxicity at 70.5 h was -0.539%.

Consider `Cc1cc(N2CCC(C(=O)O)(n3ccc(C(C)(C)C)n3)CC2)nc(N)n1`, for which the cytotoxicity at 70.5 h came to 0.151%.

For the compound `CNc1ccnc(NCC(=O)Nc2cc(C)ccc2OC)n1`, the cytotoxicity at 70.5 h is -5.67%.

With `COc1ccccc1OCCCc1cc(C#N)ccn1`, the cytotoxicity at 70.5 h amounted to 6.71%.

On to `O=C(O)[C@]12CCCN(Cc3nccs3)[C@@H]1CCN(c1cnccn1)C2`, for which the cytotoxicity at 70.5 h was -5.49%.

On to `CSc1nccc(N2CCC(NCc3nc(C)cc(C)n3)CC2)n1`, for which the cytotoxicity at 70.5 h amounted to 1.01%.

`Cc1nc(CCCN2CCOCC2)n(Cc2ccc(F)cc2)n1`: the cytotoxicity at 70.5 h was -12.5%.

As to `Cn1cc(Cl)c(CN2CCn3nc(C(=O)Nc4ccccc4)cc3C2)n1`, the cytotoxicity at 70.5 h is 32.8%.

With `CCOCCC(=O)N1CCc2cccc(S(=O)(=O)N3CCOCC3)c2C1`, the cytotoxicity at 70.5 h is -9.19%.

As for `COCc1cc(CN(C)C(=O)c2c[nH]nc2-c2cccc(F)c2)n[nH]1`, the cytotoxicity at 70.5 h turned out to be 19.4%.

Turning to `C[C@@H]1CN(S(=O)(=O)N2CCCC2)C[C@@]1(O)C1CC1`, the cytotoxicity at 70.5 h was -4.68%.

Take `Cc1cc(C(=O)N2C[C@@H]3[C@@H](CN(C)CCCn4cccn4)[C@@H]3C2)c(C)o1`: the cytotoxicity at 70.5 h is -0.851%.

In the case of `c1ccc(C(CC2CN(Cc3c[nH]cn3)CCO2)c2ccccc2)cc1` (stereo not drawn), the cytotoxicity at 70.5 h is -5.4%.

Turning to `Cn1ncc2c(NCCCOc3cccnc3)nc(C3CCCC3)nc21`, the cytotoxicity at 70.5 h is 16.2%.

Turning to `CC[C@H]1CN(C(=O)CCn2c(C)cccc2=O)CC[C@@]1(C)O`, the cytotoxicity at 70.5 h was -4.82%.

Regarding `CCc1nnsc1C(=O)N1CCCC(COc2ccc(F)cc2)C1` (stereo not drawn), the cytotoxicity at 70.5 h was -4.43%.

As to `CCNC(=O)[C@@H]1CCCN1C(=O)c1cccc(CCC(C)(C)O)c1`, the cytotoxicity at 70.5 h is -7.73%.

As for `COCCN(Cc1cnn(C)c1)CC1CCN(C(C)C)CC1`, the cytotoxicity at 70.5 h was -1.39%.

For the compound `CN(CCc1ccccn1)[C@@H]1CCN(c2cc(C(N)=O)ccn2)C[C@H]1O`, the cytotoxicity at 70.5 h is -3.34%.

With `COc1ccc(-n2ncc(C(C)NC3CCOCC3)c2C)cc1` (stereo not drawn), the cytotoxicity at 70.5 h is -1.36%.

On to `Cc1nc(NCCC23CCCN2CCC3)cc(C2CCNCC2)n1`, for which the cytotoxicity at 70.5 h was -7.1%.

`CCn1nc(C)c(CCNC(=O)c2coc(CN3CCOCC3)c2)c1C`: the cytotoxicity at 70.5 h is 0.862%.

As for `OC(CNc1ncnc2c1CCNCC2)C(F)(F)F` (stereo not drawn), the cytotoxicity at 70.5 h is -4.22%.

`Cc1ccccc1N1CCCN(C(=O)c2cn(C)c3ccccc23)CC1`: the cytotoxicity at 70.5 h was -8.98%.

Consider `CCc1cc(NCCCOC2CCCC2)ncn1`, for which the cytotoxicity at 70.5 h was -10.7%.

As to `COc1cc2c(cc1CN1CCCCC1CN1CCOCC1)CCC2` (stereo not drawn), the cytotoxicity at 70.5 h turned out to be 1.06%.

For the compound `COCCN(C)CC(=O)N1CCCC2(CCC(=O)N(CC3CC3)C2)C1` (stereo not drawn), the cytotoxicity at 70.5 h was -27.5%.

On to `Cc1nccn1CCCC(=O)N1CCN(c2cccnc2)CC1`, for which the cytotoxicity at 70.5 h came out at 4.06%.

Regarding `NC(=O)CCn1cc(CNCCCc2ccccc2O)c2ccccc21`, the cytotoxicity at 70.5 h worked out at 8.33%.

Regarding `CCc1c(C)nn(C)c1NC(=O)N1CCCOC(Cn2cccn2)C1` (stereo not drawn), the cytotoxicity at 70.5 h is -4.64%.

Turning to `CC(C)Cc1nc(CCn2ccc(=O)[nH]c2=O)n(-c2ccccn2)n1`, the cytotoxicity at 70.5 h was 11.3%.

Consider `Cn1nccc1CCNC(=O)[C@H]1CNC[C@H](C(=O)N2CCCC2)C1`, for which the cytotoxicity at 70.5 h was determined as 0.341%.

As to `Cc1ncc(CC(=O)N2CCC(N3C[C@@H](C)O[C@@H](C)C3)CC2)c(=O)[nH]1`, the cytotoxicity at 70.5 h turned out to be 9.33%.

With `O=C(NC1CC1)c1cn(C2CCN(c3cc(C4CC4)ncn3)CC2)nn1`, the cytotoxicity at 70.5 h turned out to be 30%.

On to `COCc1noc(Cn2ccc3ncccc3c2=O)n1`, for which the cytotoxicity at 70.5 h was -7.25%.

Regarding `COc1ccc2cc(C3CN(C(=O)N(C)C)CCO3)ccc2c1` (stereo not drawn), the cytotoxicity at 70.5 h amounted to 26.1%.

For `Cc1cc(-n2cccn2)ccc1CN1C[C@@H](CN(C)C)[C@@H](CO)C1`, the cytotoxicity at 70.5 h was -8.41%.

With `Cc1ccnc(NCCCN2CCc3ccccc32)n1`, the cytotoxicity at 70.5 h was -2.9%.

On to `CSCCCN1CCCC(Cn2ccnc2)C1` (stereo not drawn), for which the cytotoxicity at 70.5 h was -11.5%.

With `Cc1ccncc1C(=O)N1CCCC(C(=O)CCc2ccccc2)C1` (stereo not drawn), the cytotoxicity at 70.5 h was -7.97%.
